According to paper PMC7496508, “Modular Medical Imaging Agents Based on Azide–Alkyne Huisgen Cycloadditions: Synthesis and Pre‐Clinical Evaluation of ^18F‐Labeled PSMA‐Tracers for Prostate Cancer Imaging” (Chemistry (Weinheim an Der Bergstrasse, Germany), 2020):
Values joined by “and” are separate entries in the source; they are usually repeats but may differ in a detail not shown here. Identical values can stand only once. Each block holds one compound with its values, some of them ahead of it.

How the values were obtained:
PSMA [1] = target: T1, PSMA (Homo sapiens, UniProt Q04609); test: cell-based competitive binding radioassay with [68Ga]PSMA-11 as radioligand on LNCaP cells
T1 construct: host or cells: LNCaP cells
Protocol: To compare the binding affinity of F‐PSMA‐MIC01 with „gold standard“ PSMA‐tracers, the same assay was performed using the precursor of [^68Ga]PSMA‐11 (Figure 2 D).
Table S3. Counts per minute (CPM) of the 3 indidicually measured triplicates of [18F]PSMA-MIC01 of n- […]
Octanol (CPM) PBS (CPM) BLK (CPM) LogD Mean SD
Prostate cancer cell lines PC-3 and LNCaP were obtained from the American Type Culture Collection (ATCC, Manassas, VA). Cells were cultured in RPMI-1640 (Lonza, Swiss), supplemented with 10 % fetal calf serum (FCS, Thermo Scientific Waltham, MA) at 37°C in a humidified 5 % CO2 atmosphere. To enhance adherence of LNCaP cells tissue culture flasks and/or well plates were pre-coated with poly-D-lysine (Merck) according manufacture protocol. Cells were regularly checked for mycoplasma infection.
6.1. Cell binding studies.
For the determination of the binding affinity, a competitive binding radioassay was performed.
Two 24 well plates were incubated with 50.000 cells 3 to 4 days prior to the cell experiments.
After washing the cells twice with warm PBS, new medium was added. For the binding […]
cold reference compound F-PSMA-MIC01 were added to the wells shortly before 50 µL of the radioligand [68Ga]PSMA-HBED-CC or [18F]PSMA-1007 to reach a final volume of 500 µL in each well. After incubation of 90 min at 37°C under humidified conditions the cells were washed twice with ice-cold PBS to remove unbound tracer. Cells were detached from the wells using Trypsin supplemented with 25 % EDTA and incubated until cells were completely detached. […] The remaining activity in the cells were measured in a γ-counter. Afterwards, the cells were counted in a 1:1 solution of cell suspension and Trypan Blue. The tracer uptake was calculated using Microsoft Excel and corrected for the average number of cells and averaged. The logIC50 value was calculated using the non-linear regression algorithm for a one-site FITlogIC50 using PrismGraphPad 7.2. The graphs represented show the average of the three individual experiments, while the mentioned logIC50 was calculated from the mean of the three

PSMA [2] = target: T1, PSMA; test: competitive binding radioassay with [18F]PSMA-1007 as radioactive competitor on LNCaP cells
Protocol: During the pre‐clinical evaluation of [^18F]PSMA‐MIC01, many hospitals including the University Medical Center Groningen changed from using [^68Ga]PSMA‐11 to [^18F]PSMA‐1007. Therefore, the binding affinities for the 2nd generation PSMA‐tracers‐tracers were determined in a radioassay using [^18F]PSMA‐1007 as radioactive competitor (Figure 1 D). page 20: Table S3. Counts per minute (CPM) of the 3 indidicually measured triplicates of [18F]PSMA-MIC01 of n- octanol and PBS Octanol (CPM) PBS (CPM) BLK (CPM) LogD Mean SD […] No 1.2 2995.66 4176463.25 58.39 -3.15 […] No 2.3 1020.97 1916376.47 30.41 -3.29 -3.22 0.09 6. Cell culture. Prostate cancer cell lines PC-3 and LNCaP were obtained from the American Type Culture Collection (ATCC, Manassas, VA). Cells were cultured in RPMI-1640 (Lonza, Swiss), supplemented with 10 % fetal calf serum (FCS, Thermo Scientific Waltham, MA) at 37°C in a humidified 5 % CO2 atmosphere. To enhance adherence of LNCaP cells tissue culture flasks and/or well plates were pre-coated with poly-D-lysine (Merck) according manufacture protocol. Cells were regularly checked for mycoplasma infection. 6.1. Cell binding studies. For the determination of the binding affinity, a competitive binding radioassay was performed. Two 24 well plates were incubated with 50.000 cells 3 to 4 days prior to the cell experiments. After washing the cells twice with warm PBS, new medium was added. For the binding […] cold reference compound F-PSMA-MIC01 were added to the wells shortly before 50 µL of the radioligand [68Ga]PSMA-HBED-CC or [18F]PSMA-1007 to reach a final volume of 500 µL in each well. After incubation of 90 min at 37°C under humidified conditions the cells were washed twice with ice-cold PBS to remove unbound tracer. Cells were detached from the wells using Trypsin supplemented with 25 % EDTA and incubated until cells were completely detached. 900 µL of medium was added and cells were transferred into tubes. The remaining activity in the cells were measured in a γ-counter. Afterwards, the cells were counted in a 1:1 solution of cell suspension and Trypan Blue. The tracer uptake was calculated using Microsoft Excel and corrected for the average number of cells and averaged. The logIC50 value was calculated using the non-linear regression algorithm for a one-site FITlogIC50 […] The graphs represented show the average of the three individual experiments, while the mentioned logIC50 was calculated from the mean of the three experiments; 19

LNCaP tumor = tested on: LNCaP tumor; set-up: method as in PMID 27789722; details: cited from earlier work
[3] = distribution coefficient logD, n-octanol/PBS; assay type: physicochemical; details: n-octanol/PBS, pH 7.4, n-octanol/PBS pH 7.4; overall mean
Protocol: page 19: Figure S3: HPLC purification of [18F]PSMA-MIC02 (A) and after 4 h (B). 5. Distribution coefficient LogD. […] cup. 100 µL of the formulated final solution of [18F]PSMA-MIC01 or [18F]PSMA-MIC02 was added and vortexed for 1 minute and centrifuged for 5 min at […]. The different layers were separated and 100 µL of each layer were measured on a γ-counter. Based on the counts per minute (CPM) of each fraction, the partition coefficient was measured with the following formula: log(CPMoctanol/CPMPBS). The obtained data are as followed. Table S2. Counts per minute (CPM) of the 3 indidicually measured triplicates of [18F]PSMA-MIC01 of n- octanol and PBS. Octanol (CPM) PBS (CPM) BLK (CPM) LogD Mean SD […] No 1.2 2823.43 2715328.33 93.59 -2.99 […] No 2.3 394.49 640463.84 93.59 -3.21 […] No 3.2 3690.69 2357291.58 50.84 -2.81 No 3.3 5848.38 3956671.48 52.31 -2.83 -3.01 0.22 18 (1 picture or pasted object on this page, not shown here)

LNCaP (PSMA+) xenografts = test: ex vivo organ distribution, LNCaP xenograft mice; assay type: in vivo, Balb/c nude mice; details: LNCaP (PSMA+) xenograft, dissected after PET scan
Protocol: All groups were evaluated by visual assessment of the PET image and the percentage injected dose per gram (%ID g^−1).
The animal experiments were all performed according to the ethical guidelines and approved by the local animal welfare committee of the University of Groningen (IvD number 15166-06-001. All animals were caged separately in individually ventilated cages.
7-12 week old immune deficient Balb/c nude mice were inoculated with 200 µL of a 1:1 suspension of medium containing approximately 4 x10^6 LNCaP cells (PSMA positive cells) or 5 x 10^6 PC3 cells (PSMA-negative cells) in RPMI-1640, and Matrigel Basement Membrane Matrix High concentration. The cells were subcutaneously inoculated on the right shoulder.
After 3 to 5 weeks for LNCaP-xenografts, 2-3 weeks for PC3-xenografts or when a tumor size of 1cm3 was reached, the animals were transported to the PET imaging facility. For the […]
prepared and 100 µL were injected via penile vein injection 30 min prior to the tracer injection. Animals were anesthetized at 5 % isoflurane and maintained under 2 % isoflurane enriched with O2. The dynamic PET scan was started within 5 min after tracer injection with an acquisition time of 90 min. The static scan was performed 60 min after tracer injection with an acquisition time of 30 min.
7.2. Organ distribution and Metabolite analysis.
After sacrificing the animals, the organs were dissected and measured in a γ-counter. The obtained CPM’s were normalized to %ID/g (Table shown in main text). […]
In order to check for the significant differences, we also checked for the Cohen’s d, a measurement to determine the effect size. It is calculated on the following formula:
Cohen′sD = Mean1− Mean2 . […]

[4] = given as logIC50, single experiments, radioligand [18F]PSMA-1007, read-out: logIC50, individual experiments (converted)

T1 sequence (Q04609 whole entry): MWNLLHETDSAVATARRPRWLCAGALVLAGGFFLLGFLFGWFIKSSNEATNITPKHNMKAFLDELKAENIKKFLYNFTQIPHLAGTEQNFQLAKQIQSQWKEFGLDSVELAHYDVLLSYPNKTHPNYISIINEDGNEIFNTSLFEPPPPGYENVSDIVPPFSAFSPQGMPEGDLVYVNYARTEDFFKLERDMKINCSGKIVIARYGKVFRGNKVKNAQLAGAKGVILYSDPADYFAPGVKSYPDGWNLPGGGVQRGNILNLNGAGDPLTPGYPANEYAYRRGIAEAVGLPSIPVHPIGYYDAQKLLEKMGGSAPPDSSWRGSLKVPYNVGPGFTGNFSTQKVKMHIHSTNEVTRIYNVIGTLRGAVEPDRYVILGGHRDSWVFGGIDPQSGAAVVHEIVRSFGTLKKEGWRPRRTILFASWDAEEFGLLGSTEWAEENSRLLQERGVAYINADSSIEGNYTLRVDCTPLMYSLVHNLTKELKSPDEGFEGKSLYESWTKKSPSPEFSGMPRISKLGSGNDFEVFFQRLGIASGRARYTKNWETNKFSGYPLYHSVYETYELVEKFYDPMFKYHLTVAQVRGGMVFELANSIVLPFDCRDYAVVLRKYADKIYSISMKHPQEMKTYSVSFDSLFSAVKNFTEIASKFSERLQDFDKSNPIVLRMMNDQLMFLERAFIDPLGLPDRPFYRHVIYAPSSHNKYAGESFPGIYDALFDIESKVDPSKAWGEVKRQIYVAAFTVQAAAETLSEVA

IC50 (PSMA [1]; given as logIC50, single experiments, radioligand [68Ga]PSMA-11, read-out: logIC50, individual experiments (No 1-3) (converted)): 57.5 nM and 138 nM and 257 nM
IC50 (PSMA [1]; printed as logIC50 (negative values), mean of three experiments, radioligand [68Ga]PSMA-11, 90 min 37°C, read-out: logIC50 (converted)): 129 nM
IC50 (PSMA [2]; [4]): 363 nM and 851 nM and 219 nM
SMILES: O=C(O)CC[C@H](NC(=O)N[C@@H](CCCCNC(=O)c1ccc(-c2cn(CCOCCOCCF)nn2)cc1)C(=O)O)C(=O)O [F-PSMA-MIC01]

IC50 (PSMA [2]; [4]): 44.7 nM and 45.7 nM and 30.9 nM
SMILES: O=C(O)CC[C@H](NC(=O)N[C@@H](CCCCNC(=O)c1ccc(-c2cn(CCOCCOCCOc3ccc(CCF)cc3)nn2)cc1)C(=O)O)C(=O)O [F-PSMA-MIC02]

IC50 (PSMA [2]; printed as logIC50 (negative values), mean of n=3 (MIC03 n=4), radioligand [18F]PSMA-1007, read-out: logIC50 (converted)): 275 nM
SMILES: O=C(O)CC[C@H](NC(=O)N[C@@H](CCCCNC(=O)c1ccc(Cn2cc(COCCOCCF)nn2)cc1)C(=O)O)C(=O)O [F-PSMA-MIC03]

IC50 (PSMA [2]; [4]): 245 nM and 151 nM and 490 nM
SMILES: O=C(O)CC[C@H](NC(=O)N[C@@H](CCCCNC(=O)c1ccc(Cn2cc(COCCOCCOc3ccc(CCF)cc3)nn2)cc1)C(=O)O)C(=O)O [F-PSMA-MIC04]

SMILES: O=C(O)CC[C@H](NC(=O)N[C@@H](CCCCNC(=O)[C@H](Cc1ccc2ccccc2c1)NC(=O)c1ccc(CNC(=O)[C@H](CCC(=O)O)NC(=O)[C@H](CCC(=O)O)NC(=O)c2ccc([18F])nc2)cc1)C(=O)O)C(=O)O [[^18F]PSMA‐1007]
LNCaP tumor uptake (LNCaP tumor): 8.04±2.4 %ID g^−1

logD [3]: -3.22 ± 0.1
SMILES: O=C(O)CC[C@H](NC(=O)N[C@@H](CCCCNC(=O)c1ccc(-c2cn(CCOCCOCCOc3ccc(CC[18F])cc3)nn2)cc1)C(=O)O)C(=O)O [[^18F]PSMA‐MIC02]

ex vivo uptake bone (LNCaP (PSMA+) xenografts): 0.1±0.1 %ID g^−1
ex vivo uptake brain (LNCaP (PSMA+) xenografts): 0.0±0.0 %ID g^−1
ex vivo uptake heart (LNCaP (PSMA+) xenografts): 0.2±0.0 %ID g^−1
ex vivo uptake kidney (LNCaP (PSMA+) xenografts): 69.1±21.1 %ID g^−1
ex vivo uptake large intestine (LNCaP (PSMA+) xenografts): 0.7±0.9 %ID g^−1
ex vivo uptake liver (LNCaP (PSMA+) xenografts): 0.2±0.3 %ID g^−1
ex vivo uptake lungs (LNCaP (PSMA+) xenografts): 1.1±0.4 %ID g^−1
ex vivo uptake muscles (LNCaP (PSMA+) xenografts): 0.2±0.1 %ID g^−1
ex vivo uptake pancreas (LNCaP (PSMA+) xenografts): 0.6±0.6 %ID g^−1
ex vivo uptake plasma (LNCaP (PSMA+) xenografts): 1.0±0.5 %ID g^−1
ex vivo uptake salivary glands (LNCaP (PSMA+) xenografts): 0.9±0.4 %ID g^−1
ex vivo uptake small intestine (LNCaP (PSMA+) xenografts): 0.5±0.6 %ID g^−1
ex vivo uptake spleen (LNCaP (PSMA+) xenografts): 15.9±7.3 %ID g^−1
ex vivo uptake stomach (LNCaP (PSMA+) xenografts): 0.4±0.2 %ID g^−1
ex vivo uptake tumor (LNCaP (PSMA+) xenografts): 6.8±6.3 %ID g^−1
ex vivo uptake urine (LNCaP (PSMA+) xenografts): 45.4±30.8 %ID g^−1
ex vivo uptake whole blood (LNCaP (PSMA+) xenografts): 2.2±3.8 %ID g^−1
SMILES: O=C([O-])CN(CCN(CC(=O)[O-])Cc1cc(CCC(=O)NCCCCCC(=O)NCCCC[C@H](NC(=O)N[C@@H](CCC(=O)O)C(=O)O)C(=O)O)ccc1[O-])Cc1cc(CCC(=O)O)ccc1[O-].[68Ga+3].[OH3+] [[^68Ga]PSMA‐11, reference compound]

logIC50, individual experiments (No 1-3) (PSMA [1]; given as logIC50, single experiments, radioligand [68Ga]PSMA-11, listed as PSMA-11 precursor): -7.12 and -7.03 and -7.53
SMILES: O=C(O)CCc1ccc(O)c(CN(CCN(CC(=O)O)Cc2cc(CCC(=O)NCCCCCC(=O)NCCCC[C@H](NC(=O)N[C@@H](CCC(=O)O)C(=O)O)C(=O)O)ccc2O)CC(=O)O)c1 [precursor of PSMA-11, reference compound]
